SMILES strings stand for the structures. Active and inactive are the calls of the source. No cut-off for these calls is given here.

Holding throughout (type): functional
The target of assay [1] is T1, Glutamate NMDA receptor (Rattus norvegicus) (UniProt P35439+Q00959+Q00960+Q00961+Q62645+Q8VHN2+Q9R1M7). The assay is described as follows: Antagonistic activity against 10 uM of N-methyl-D-aspartate glutamate receptor at the concentration of 200 uM. Set-up: scale not given: the % may be the effect or the level left.
For assay [2], the target named is T2, Glutamate receptor ionotropic, AMPA (Rattus norvegicus) (UniProt P19491+P19492+P19493+P19490). Description: Antagonistic activity against 5 uM of quis/AMPA at the concentration of 200 uM; ns = not significant.
Assay [3] deals with T1, Glutamate NMDA receptor (Rattus norvegicus). The assay is described as follows: Depression of depolarizing response vs 10 uM N-methyl-D-aspartate glutamate receptor at the concentration of 200 uM; inactive.
Assay [4] deals with T3, Glutamate receptor ionotropic, kainate (Rattus norvegicus) (UniProt P22756+Q01812+P42260+P42264+Q63273). Description: Antagonistic activity against Ionotropic glutamate receptor kainate at the concentration of 200 uM; ns = not significant.
Assay [5] concerns the target T1, Glutamate NMDA receptor (Rattus norvegicus). Description: Depression of depolarizing response vs 10 uM N-methyl-D-aspartate glutamate receptor at the concentration of 500 uM.
For assay [6], the target named is T3, Glutamate receptor ionotropic, kainate (Rattus norvegicus). The assay is described as follows: Antagonistic activity against Ionotropic glutamate receptor kainate at the concentration of 500 uM; ns = not significant.
Assay [7] concerns the target T1, Glutamate NMDA receptor (Rattus norvegicus). Description: Antagonistic activity against 10 uM of N-methyl-D-aspartate glutamate receptor at the concentration of 500 uM. More on the design: scale not given: the % may be the effect or the level left.
In assay [8] the target is T2, Glutamate receptor ionotropic, AMPA (Rattus norvegicus). The assay is described as follows: Antagonistic activity against 5 uM of quis/AMPA at the concentration of 500 uM; ns = not significant.
For assay [9], the target named is T1, Glutamate NMDA receptor (Rattus norvegicus). Description: Depression of depolarizing response vs 10 uM N-methyl-D-aspartate glutamate receptor at the concentration of 500 uM; inactive.
For assay [10] the target is unchanged. The assay is described as follows: Antagonistic activity against 10 uM of N-methyl-D-aspartate glutamate receptor at the concentration of 500 uM; ns = not significant.
Assay [11] deals with T2, Glutamate receptor ionotropic, AMPA (Rattus norvegicus). Description: Antagonistic activity against 5 uM of quis/AMPA at the concentration of 200 uM. Set-up: scale not given: the % may be the effect or the level left.
In assay [12] the target is T3, Glutamate receptor ionotropic, kainate (Rattus norvegicus). The assay is described as follows: Antagonistic activity against Ionotropic glutamate receptor kainate at the concentration of 200 uM. Set-up: scale not given: the % may be the effect or the level left.
The target is the same in assay [13]. The assay is described as follows: Antagonistic activity against Ionotropic glutamate receptor kainate at the concentration of 100 uM. More on the design: scale not given: the % may be the effect or the level left.
Assay [14] concerns the target T2, Glutamate receptor ionotropic, AMPA (Rattus norvegicus). Description: Antagonistic activity against 5 uM of quis/AMPA at the concentration of 100 uM. Set-up: scale not given: the % may be the effect or the level left.
In assay [15] the target is T1, Glutamate NMDA receptor (Rattus norvegicus). Description: Antagonistic activity against 10 uM of N-methyl-D-aspartate glutamate receptor at the concentration of 100 uM. More on the design: scale not given: the % may be the effect or the level left.

In [1], `N[C@]1(C(=O)O)C[C@@H](CP(=O)(O)O)C1` returned an Activity of 40%. Moreover, the result in assay [2], in assay [3] and in assay [4] was inactive.
Consider `N[C@]1(C(=O)O)C[C@@H](CC(=O)O)C1`, for which the Activity worked out at 50% in assay [1] and 0.25 in [5].
Take `N[C@]1(C(=O)O)C[C@@H](CCCP(=O)(O)O)C1.N[C@]1(C(=O)O)C[C@H](CCCP(=O)(O)O)C1`: the result in [6], in [8] and in [9] was inactive. The compound also came in with an Activity in assay [7] of 50%.
For the compound `N[C@]1(C(=O)O)C[C@H](CC(=O)O)C1`, the result in [10], in [6] and in [8] was inactive. For the same compound, in assay [5], the Activity was determined as 0.65.
Take `N[C@]1(C(=O)O)C[C@@H](CP(=O)(O)O)C1.N[C@]1(C(=O)O)C[C@H](CP(=O)(O)O)C1`: the Activity in assay [1] came out at 40%; in assay [11] it was 25%; in assay [12], 25%. The outcome in [9] was inactive.
In the case of `NC1(C(=O)O)CC(=CP(=O)(O)O)C1` (configuration not stated), the values for the Activity in [13], in assay [14] and in [15] were 25%, 30% and 40%, respectively. In addition, in [9], the result was inactive.

The record behind these values is ChEMBL document CHEMBL1125121, “Synthesis and activity of a potent N-methyl-D-aspartic acid agonist, trans-1-aminocyclobutane-1,3-dicarboxylic acid, and related phosphonic and carboxylic acids” (J Med Chem, 1990).
